Common to all, as to format: cell-based
The subject of experiment [1] is human PMN migration across inverted T84 epithelial monolayers. As to the kind of experiment: PMN transepithelial migration assay, basolateral-to-apical direction (inverted monolayers), fMLP gradient, myeloperoxidase readout. As to the method: Cell culture Approximately 350 epithelial monolayers were used for these studies. T84 intestinal epithelial cells (passages 70-95) were grown and maintained as confluent monolayers on collagen coated permeable support. Monolayers were grown on 0.33 cm^2 ring-supported polycarbonate filters (Costar Corp., Cambridge, Mass.) and utilized 6-14 days after plating as described in Example 2. Transepithelial resistance to passive ion flow was measured as described in Parkos C. A., et al. (1991). J. Clin. Invest. 88: 1605-1612); and Parkos C. A., et al. (1992). J. Cell. Biol. 117: 757-764). Inverted monolayers used to study migration of PMN in the basolateral-to-apical direction were constructed as described in Parkos C. A., et al. (1991). J. Clin. Invest. 88:1605-1612).
(§1) Migration assay: The PMN transepithelial migration assay has been detailed in Nash S., et al. (1987). J. Clin. Invest. 80: 1104-1113; Nash S., et al. (1991). J. Clin. Invest 87: 1474-1477); Parkos C. A., et al. (1991). J. Clin. Invest. 88: 1605-1612); and Parkos C. A., et al. (1992). J. Cell. Biol. 117: 757-764. Briefly, human PMN were isolated from normal human volunteers and suspended in modified HBSS (without Ca^2+ and Mg^2+, with 10 mM Hepes, pH 7.4, Sigma) at a concentration of 5×10^7/ml. Prior to addition of PMN, T84 monolayers were extensively rinsed in HBSS to remove residual serum components. Migration assays were performed by the addition of PMN (40 μl) to HBSS ([…]) in the upper chambers after chemoattractant (1 μM fMLP in HBSS) was added to the opposing (lower) chambers. Unless otherwise indicated, PMN were not washed free of LXA4 prior to addition to monolayers, and therefore, a five-fold dilution of lipoxin was present during the migration assay. For apical-to-basolateral migration experiments, PMN (2×10^6) were added at time 0. Migration in the basolateral-to-apical direction, while qualitatively similar, is substantially more efficient than in the apical-to-basolateral direction. (Parkos C. A., et al. (1991). J. Clin. Invest. 88: 1605-1612). Therefore, 5-fold fewer PMN (4×10^5) were added when migration proceeded in the basolateral-to-apical direction in order that baseline migration signals be approximately equivalent in both directions. (Parkos C. A., et al. (1991). J. Clin. Invest. 88: 1605-1612). Migration was allowed to proceed for 120 minutes, unless otherwise noted. All PMN transepithelial migration experiments were performed in a 37° C. room to ensure that epithelial monolayers, solutions, plasticware, etc., were maintained at uniform 37° C. temperature.
(§2) Migration was quantitated by assaying for the PMN azurophilic granule marker myeloperoxidase (MPO) as described previously (Parkos C. A., et al. (1991). J. Clin. Invest 88: 1605-1612). Following each migration assay, non-adherent PMN were extensively washed from the surface of the monolayer and PMN cell equivalents (PMN CE), estimated from a standard curve, were assessed as the number of PMN's associated with the monolayer, the number which had completely traversed the monolayer (ie. across the monolayer into the reservoir bath), as well as the total number of transmigrating PMN (the sum of monolayer and reservoir-associated PMN).
Data Presentation: Individual experiments were performed using large numbers of uniform groups of monolayers and PMN from individual blood donors on individual days. PMN isolation was restricted to five different blood donors (repetitive donations) over the course of these studies. Myeloperoxidase assay data were compared by two-factor analysis of variance (ANOVA) or by comparison of means using Student's t-Test PMN migration results are represented as PMN CE derived from a daily standard PMN dilution curve. Monolayer-associated PMN are represented as the number of PMN CE per monolayer and reservoir-associated PMN (ie. PMN which had completely traversed the monolayer into the lower chamber) are represented as the number of PMN CE/ml (total volume of 1 ml). […]

The subject of experiment [2] is human PMN migration across T84 epithelial monolayers. As to the kind of experiment: PMN chemotactic capacity toward LXA4 placed in lower chamber, apical-to-basolateral. The note with it: compared to 1 μM fMLP. As for the experimental part: as §1, §2
To investigate whether LXA4 could serve to stimulate PMN migration in this assay system, dilutions of LXA4 in the range of 0.01-10 nM were placed in the lower chamber of migration wells. Untreated PMN's were added to the upper chamber and assessed for chemotactic capacity toward LXA4 in the apical-to-basolateral direction. […]

The test system is the same in experiment [3]. As to the kind of experiment: Effect of inhibitors on baseline and LXA4-elicited PMN transepithelial migration, apical-to-basolateral. The following applies: for LXA4-elicited increase in fMLP driven PMN migration over control: LXA4 10 nM.

Values joined by “and” are separate entries in the source; they are usually repeats but may differ in a detail not shown here. Equal values may be shown once.

With `CCCCC[C@H](O)/C=C/C=C\C=C\C=C\[C@@H](O)[C@@H](O)CCCC(=O)O` (relative stereo) [LXA4, (5S, 6R, 15S)-trihydroxy-7,9,13-trans-11-cis-eicosatetraenoic acid], the “inhibition of PMN migration, basolateral-to-apical (total MPO activity)” value in experiment [1] (10 nM, 15 min pre-incubation 37°C, 1 μM fMLP, 120 min) was 28±4% and 25%. Also, the “transmigrated (reservoir) PMN, basolateral-to-apical” value in experiment [1] (PMN pre-exposed 1 nM LXA4 15 min) is reported as 6.99±1.33 ×10^4 PMN/ml. For the same compound, the “monolayer-associated PMN, basolateral-to-apical” value in experiment [1] (PMN pre-exposed 10 nM LXA4 15 min) came out at 2.00±0.31. The “PMN migration toward LXA4, % of fMLP-induced PMN migration” value is 6±2.1% in experiment [2] (0.01 nM LXA4 in lower chamber), 9±3.6% in experiment [2] (0.1 nM LXA4 in lower chamber), 6±2.4% in experiment [2] (1.0 nM LXA4 in lower chamber) and 12±1.4% in experiment [2] (10 nM LXA4 in lower chamber). Besides, the “LXA4-elicited increase in fMLP driven PMN migration over control” value is 61±11% in experiment [3] (PMN pre-exposed to indomethacin 50 μM) and 54±7% in experiment [3] (without indomethacin). Besides, the “LXA4-elicited increase in PMN migration compared to control” value in experiment [3] (LXA4 10 μM (so in the source), pertussis toxin experiment) is given as 46±3%.

The values above are taken from patent US8440718B2, “Modulation of inflammation related to columnar epithelia” (The Brigham and Women's Hospital, Inc., priority 1991, dated 2013).
